The text below walks through data of PMC4431183 (2015).

Test [1] has as its system HteloDNA (DNA, G4) GGGTTAGGGTTAGGGTTAGGG
The test can be described thus: visible absorbance titration at 405 nm. The conditions noted are these: 100 mM K+, 10 mM Mg2+, 2 mM Na+; 50 mM MES-LiOH pH 7.0, 2 mM NaOH, 25 °C; 12.5 µM hemin.

Test [2] relates to dsDNA (DNA, duplex) AGAAGAGAAAGA/TCTTTCTCTTCT
The test can be described thus: visible absorbance titration at 405 nm. The conditions noted are these: 100 mM K+, 10 mM Mg2+, 2 mM Na+; 50 mM MES-LiOH pH 7.0, 2 mM NaOH, 25 °C; 12.5 µM hemin; 0–250 µM dsDNA, change too small for Ka.

The test system is the same in test [3]. Briefly: visible absorbance titration at 424 nm. Conditions: 100 mM K+, 10 mM Mg2+; 50 mM MES-LiOH pH 7.0, 25 °C; 1.0 µM TMPyP4.
Test [4] concerns HteloDNA (DNA, G4) GGGTTAGGGTTAGGGTTAGGG
The test can be described thus: visible absorbance titration at 424 nm. Conditions: 100 mM K+, 10 mM Mg2+; 50 mM MES-LiOH pH 7.0, 25 °C; 1.0 µM TMPyP4.

Structures are written as SMILES.

In the case of `C=CC1=C(C)C2=Cc3c(C=C)c(C)c4[n]3[Fe]([Cl])[n]3c(c(C)c(CCC(=O)O)c3=CC3=NC(=C4)C(C)=C3CCC(=O)O)=CC1=N2`, in test [1], the Ka result is “(5.5 ± 3.1) × 10^4 M^−1”. In addition, in test [2], the binding result is given as “weak”.

As for `C[n+]1ccc(-c2c3nc(c(-c4cc[n+](C)cc4)c4ccc([nH]4)c(-c4cc[n+](C)cc4)c4nc(c(-c5cc[n+](C)cc5)c5ccc2[nH]5)C=C4)C=C3)cc1`, the Ka result is listed as “(1.8 ± 0.6) × 10^5 M^−1” in test [3] and “(1.2 ± 0.1) × 10^6 M^−1” in test [4].
